We go through one compound from patent US20070219825A1, “METHOD OF MANAGING AND REDUCING SIDE EFFECTS ASSOCIATED WITH EXPOSURE TO A DRUG” (priority 2005, published 2007).

Data set [1] in a line: placebo-controlled trials, liver aminotransferases. The class given is in vivo, patients. The source says:
(§1) As described herein, an exemplary restricted drug distribution program for the distribution of sitaxsentan sodium has been developed, in accordance with the restricted distribution methods provided above, to minimize the risk of side effects associated with exposure to sitaxsentan sodium. Sitaxsentan sodium is an endothelin receptor antagonist (ETRA) used to treat people diagnosed with pulmonary arterial hypertension (PAH). […] However, along with the many benefits, there are many risks associated with exposure to sitaxsentan sodium. For instance, ETRA's, as a class, have been associated with liver function abnormalities. […] In addition, ETRA's, as a class, have consistently produced teratogenic effects in animals. […] Although the effects of sitaxsentan sodium on human development are not known, it is likely to produce major birth defects if used by pregnant women. Sitaxsentan sodium also is contraindicated for those taking cyclosporine A (used for treatment of psoriasis and rheumatoid arthritis, and to prevent rejection of organ transplants).

For the next data set, the system named is rat. Put plainly: reproductive toxicology studies, dosing during pregnancy. The class given is in vivo.
Text: as §1

In data set [2] the test system is pulmonary arterial hypertension (PAH). Put plainly: clinical studies in subjects with PAH. The class given is in vivo.
Text: as §1

The test system of another data set is metabolism of warfarin. The conditions noted are these: concomitant warfarin; cited from earlier work.

For `Cc1cc2c(cc1CC(=O)c1sccc1S(=O)(=O)Nc1onc(C)c1Cl)OCO2` [sitaxsentan sodium], in data set [1], the “patients with at least a three-fold increase of liver aminotransferases (hepatoxicity)” value was “about two”. Further, in the data set on rat, the “reproductive toxicology: effect of dosing during pregnancy” value is on record as “several fetal malformations”. Also, the “safety and efficacy in the treatment of PAH” value in data set [2] was “demonstrated safety and efficacy”. The “effect on metabolism of warfarin” value with metabolism of warfarin was “antagonize the metabolism of warfarin”.
